From patent publication EP4782453A1 (Beyang Therapeutics Co., Ltd., priority 2023, dated 2025) come the findings set out here.

pIC50: −log10 of the molar value. Read-outs that look alike come from different tables or passages of the source.

Experiment [1] concerns MOLM-13 (carrying MLL-AF9). Kind of experiment: Inhibition of proliferation of human tumor cells (Alamar Blue, 7 days), MOLM-13. The class given is cell-based. The note with it: Homo sapiens, MOLM-13 cells (carrying MLL-AF9), method calls the value GI50. Put shortly: (§1)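 GI50 values reflect growth inhibition over 7 days, read by Alamar Blue. Seeding density was 4,000 cells/well except KG-1a (3,000 cells/well); each line grew in its own FBS-containing medium at 37°C.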

The next experiment deals with T1, Menin-MLL (Homo sapiens, UniProt O00255).
T1 construct: His-Menin (M1-L615 end); purchased BIORTUS BP9210
T1 sequence (O00255 1-615 isoform O00255-1): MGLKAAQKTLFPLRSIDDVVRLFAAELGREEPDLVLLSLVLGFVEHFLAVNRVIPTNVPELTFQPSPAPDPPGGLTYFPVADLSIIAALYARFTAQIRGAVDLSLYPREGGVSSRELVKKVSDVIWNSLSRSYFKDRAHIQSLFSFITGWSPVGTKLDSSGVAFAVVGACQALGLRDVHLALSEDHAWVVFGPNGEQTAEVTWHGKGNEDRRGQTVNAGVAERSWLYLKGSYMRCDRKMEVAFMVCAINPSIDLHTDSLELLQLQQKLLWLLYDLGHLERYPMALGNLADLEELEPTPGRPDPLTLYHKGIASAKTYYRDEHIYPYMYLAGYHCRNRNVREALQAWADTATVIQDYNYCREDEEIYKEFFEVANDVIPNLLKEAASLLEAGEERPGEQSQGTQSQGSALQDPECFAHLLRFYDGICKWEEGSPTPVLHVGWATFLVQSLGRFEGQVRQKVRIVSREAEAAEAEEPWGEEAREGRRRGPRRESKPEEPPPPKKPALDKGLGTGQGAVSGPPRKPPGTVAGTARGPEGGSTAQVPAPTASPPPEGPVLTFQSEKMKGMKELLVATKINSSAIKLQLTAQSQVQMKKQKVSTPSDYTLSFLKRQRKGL
Kind of experiment: Inhibitory activity against Menin-MLL binding (fluorescence polarization). The settings on record: 150 nM His-Menin, 15 nM FITC-MLL, 25°C for 60 min. The method, boiled down: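 Fluorescence polarization competition: compound and 150 nM His-tagged menin (residues M1-L615) sit 15 min at 25 °C in pH 7.5 HEPES buffer with NaCl, DTT and BSA; 15 nM FITC-labelled MLL peptide then binds for 60 min. IC50 fitted sigmoidally from mP values, duplicate wells.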

Experiment [2] relates to MV-4-11 (carrying MLL-AF4). The experiment is described as follows: Inhibition of proliferation of human tumor cells (Alamar Blue, 7 days), MV-4-11. The settings on record: Homo sapiens, MV4-11, 168 h, MV-4-11 cells (carrying MLL-AF4), method calls the value GI50. In kind it is cell-based. Put shortly: as §1
On the technique in general: The colour change of resazurin is a common sign of viable cells or microbes.

Setting [3] is: fluorescence polarization, read-out: Menin-MLL IC50.
Where [4] appears, read: Menin-MLL IC50, fluorescence polarization.

One may read the pIC50 as the negative decadic logarithm of the IC50, by convention in mol/L. `Cc1nc(F)c2c(-c3ccc(F)cc3C(=O)N3[C@H](C)COC[C@H]3C)cc(C3CN(CC4CCN(C(=O)C5(O)CC5)CC4)C3)cn12` [Example 214]: the pIC50 in experiment [1] (168 h) was 7.92; on Menin-MLL (setting [3]) it was 8.30; in experiment [2] it was 8.12.

Consider `CCC(=O)N1CCC(CN2CC(c3cc(-c4ccc(F)cc4C(=O)N4[C@H](C)COC[C@H]4C)c4c(F)nc(C)n4c3)C2)CC1` [Example 231], for which the results for the negative logarithm of the IC50 (pIC50) (in experiment [1] (168 h); at Menin-MLL (setting [3]); in experiment [2]) were 7.80, 7.65 and 8.21, respectively.

Take `Cc1nc(F)c2c(-c3ccc(F)cc3C(=O)N3[C@H](C)COC[C@H]3C)cc(C3CN(CC4CCN(C(=O)c5cn[nH]c5)CC4)C3)cn12` [Example 247]: the pIC50 in experiment [1] (168 h) is 7.66; on Menin-MLL (setting [3]), 8.02; in experiment [2], 8.04.

`CCNC(=O)N1CCC(C(C)N2CC(c3cc(-c4ccc(F)cc4C(=O)N(CC)C(C)C)c4cnc(C)n4c3)C2)CC1` (stereo not drawn) [Example 285]: the negative-log IC50 (pIC50) in experiment [1] (168 h) was 7.64; on Menin-MLL (setting [3]) it was 8.40; in experiment [2], 8.27.

Take `Cc1nc(F)c2c(-c3ccc(F)cc3C(=O)N3CCOC[C@H]3C)cc(C3CN(CC4CCOCC4)C3)cn12` [Example 232, (3R)-4-[5-fluoro-2-(1-fluoro-3-methyl-6-{1-[(oxacyclohexan-4-yl)methyl]azacyclobutan-3-yl}imidazo[1,5-a]pyridin-8-yl)benzoyl]-3-methylmorpholine]: the values for the negative logarithm of the IC50 (pIC50) (in experiment [1] (168 h); on Menin-MLL (setting [3]); in experiment [2]) were 7.47, 7.76 and 7.77, respectively.

As to `CCCC(=O)N1CCC([C@H](C)N2CC(c3cc(-c4ccc(F)cc4C(=O)N4CCOC[C@H]4C)c4c(F)nc(C)n4c3)C2)CC1` [Example 294], the negative logarithm of the IC50 (pIC50) in experiment [1] (168 h) was 7.34; at Menin-MLL (setting [3]) it was 8.02; in experiment [2] it was 8.31.

On to `Cc1ncc2c(-c3ccc(F)cc3C(=O)N3CCOC[C@H]3C)cc(C3CN(CC4CCOCC4)C3)cn12` [Example 243, (3R)-4-[5-fluoro-2-(3-methyl-6-{1-[(oxacyclohexan-4-yl)methyl]azacyclobutan-3-yl}imidazo[1,5-a]pyridin-8-yl)benzoyl]-3-methylmorpholine], for which the negative logarithm of the IC50 (pIC50) is 6.70 in experiment [1] (168 h), 7.50 on Menin-MLL (setting [3]) and 7.38 in experiment [2].

Regarding `CNC(=O)N1CCC(CN2CC(c3cc(-c4ccc(F)cc4C(=O)N4CCOC[C@H]4C)c4c(F)nc(C)n4c3)C2)CC1` [Example 250], the pIC50 was 7.35 in experiment [1] (168 h), 7.77 at Menin-MLL (setting [3]) and 7.59 in experiment [2].

For `CO[C@H]1CCN([C@H]2C[C@@H](C(C(C)C)N3CC(c4cc(-c5ccc(F)cc5C(=O)N5CCOC[C@H]5C)c5cnn(C)c5c4)C3)C2)C1` (stereo partly drawn) [Example 196-2, 4-{4-fluoro-2-[(3R)-3-methylmorpholin-4-carbonyl]phenyl}-1-methyl-6-(1-{2-methyl-1-[(1s,3s)-3-[(3S)-3-methoxypyrrolidin-1-yl]cyclobutyl]propyl}azacyclobutan-3-yl)-1H-indazole], the pIC50 in experiment [1] (MOLM-13, 168 h) was 7.55; on Menin-MLL (setting [4]), 7.77; in experiment [2] it was 8.02.

Turning to `Cc1nc(F)c2c(-c3ccc(F)cc3C(=O)N3[C@H](C)COC[C@H]3C)cc(C3CN(CC4CCN(C(=O)C(F)F)CC4)C3)cn12` [Example 219], the results for the negative-log IC50 (pIC50) (in experiment [1] (168 h); at Menin-MLL (setting [3]); in experiment [2]) were 7.85, 7.92 and 7.92, respectively.

Turning to `CNCCCC(C(C)C)N1CC(c2cc(-c3ccc(F)cc3C(=O)N(CC(F)F)C(C)C)c3c(F)nc(C)n3c2)C1` (stereo not drawn) [Example 141, N-(2,2-difluoroethyl)-5-fluoro-2-(1-fluoro-3-methyl-6-{1-[2-methyl-6-(methylamino)hexan-3-yl]azacyclobutan-3-yl}imidazo[1,5-a]pyridin-8-yl)-N-(isopropyl)benzamide], the results for the pIC50 (in experiment [1] (168 h); at Menin-MLL (setting [3]); in experiment [2]) were 8.27, 8.26 and 8.96, respectively.

With `CCN(C(=O)c1cc(F)ccc1-c1cc(C2CN(C(C)C3CCN(C(C)=O)CC3)C2)cn2c(C)nc(F)c12)C(C)C` (stereo not drawn) [Example 288], the values for the pIC50 (in experiment [1] (168 h); at Menin-MLL (setting [3]); in experiment [2]) were 7.26, 8.22 and 7.82, respectively.

For the molecule `Cc1ncc2c(-c3ccc(F)cc3C(=O)N(CC(F)F)C(C)C)cc(C3CN(C(=O)[C@@H]4CCCCN4)C3)cn12` [Example 133], the figures for the pIC50 (in experiment [1] (168 h); at Menin-MLL (setting [3]); in experiment [2]) were 7.51, 7.52 and 7.31, respectively.

In the case of `Cc1nc(F)c2c(-c3ccc(F)cc3C(=O)N3[C@H](C)COC[C@H]3C)cc(C3CN(CC4CCN(C(=O)c5cncnc5)CC4)C3)cn12` [Example 234], the negative logarithm of the IC50 (pIC50) in experiment [1] (168 h) is 7.85; at Menin-MLL (setting [3]), 7.96; in experiment [2] it was 8.24.

On to `CCN(C(=O)c1cc(F)ccc1-c1cc(C2CN([C@H](CCCN3CCN(C)CC3)C(C)C)C2)cc2c1cnn2C)C(C)C` [Example 420], for which the negative logarithm of the IC50 (pIC50) in experiment [1] (168 h) was 7.37; at Menin-MLL (setting [3]), 8.42; in experiment [2] it was 7.74.

For `CCS(=O)(=O)N[C@H]1CC[C@H](CN2CC[C@@H](c3cc(-c4ccc(F)cc4C(=O)N(CC(F)F)C(C)C)c4cnc(C)n4c3)C2)CC1` [Example 164, N-(2,2-difluoroethyl)-5-fluoro-2-{3-methyl-6-[(3S)-1-{[(1r,4r)-4-ethanesulfonamidocyclohexyl]methyl}pyrrolidin-3-yl]imidazo[1,5-a]pyridin-8-yl]-N-(isopropyl)benzamide], the pIC50 in experiment [1] (MOLM-13, 168 h) is 8.21; at Menin-MLL (setting [4]), 8.22; in experiment [2], 8.66.

In the case of `CCNC(=O)N1CCC(CN2CC(c3cc(-c4ccc(F)cc4C(=O)N(CC)C(C)C)c4cnc(C)n4c3)C2)CC1` [Example 290], the results for the pIC50 (in experiment [1] (168 h); on Menin-MLL (setting [3]); in experiment [2]) were 7.62, 8.40 and 8.28, respectively.

As for `CCS(=O)(=O)N[C@H]1CC[C@H](CN2CCC(c3cc(-c4ccc(F)cc4C(=O)N(CC(F)F)C(C)C)c4cnccn34)CC2)CC1` [Example 139, N-(2,2-difluoroethyl)-5-fluoro-N-(isopropyl)-2-[6-(1-{[(1r,4r)-4-ethanesulfonamidocyclohexyl]methyl}piperidin-4-yl)pyrrolo[1,2-a]pyrazin-8-yl]benzamide], the negative-log IC50 (pIC50) in experiment [1] (MOLM-13, 168 h) is 7.02; at Menin-MLL (setting [4]), 7.38; in experiment [2], 7.36.

Turning to `CCNC(=O)N1CCC([C@H](C)N2CC(c3cc(-c4ccc(F)cc4C(=O)N4CCOC[C@H]4C)c4c(F)nc(C)n4c3)C2)CC1` [Example 279], the pIC50 in experiment [1] (168 h) is 8.13; on Menin-MLL (setting [3]), 8.22; in experiment [2], 8.48.

With `Cc1nc(F)c2c(-c3ccc(F)cc3C(=O)N3[C@H](C)COC[C@H]3C)cc(C3CN(CC4CCN(C(=O)CC#N)CC4)C3)cn12` [Example 226], the pIC50 is 8.28 in experiment [1] (168 h), 8.12 at Menin-MLL (setting [3]) and 8.68 in experiment [2].

With `Cc1nc(F)c2c(-c3ccc(F)cc3C(=O)N3CCOC[C@H]3C)cc(C3CN(CC4CCN(C(=O)C(F)F)CC4)C3)cn12` [Example 268], the values for the pIC50 (in experiment [1] (168 h); on Menin-MLL (setting [3]); in experiment [2]) were 7.02, 7.49 and 7.44, respectively.

As to `Cc1nc(F)c2c(-c3ccc(F)cc3C(=O)N3CCOC[C@H]3C)cc(C3CN(CC4CCN(C(=O)N5CC(F)(F)C5)CC4)C3)cn12` [Example 258], the results for the pIC50 (in experiment [1] (168 h); at Menin-MLL (setting [3]); in experiment [2]) were 7.31, 7.30 and 7.44, respectively.
